Patent US20070275925A1, “ASTHMA DIAGNOSIS AND THERAPY” (REGENTS OF THE UNIVERSITY OF CALIFORNIA, priority 2006, published 2007)
“Also recorded” adds a separate entry of the source.

Assays:
epithelial brushings = experiment: Microarray gene expression in epithelial brushings, randomized placebo-controlled trial of inhaled fluticasone; type: in vivo, human
Procedure: In three cross sectional studies and a clinical trial, epithelial brushings were collected by bronchoscopy from 42 subjects with asthma, 16 current smokers without asthma, and 28 healthy controls. Cross-sectional studies comprised 2 visits, the first for characterization and the second for bronchoscopy. The clinical trial was a 10 week, randomized, double-blind, placebo-controlled trial specifically designed to determine the effects of inhaled fluticasone (500 μg twice daily) on airway gene expression and to relate gene expression changes to improvements in lung function (FIG. 1). Bronchoscopy was performed at baseline and repeated 1 week after starting study drug. Thirty-five subjects had adequate baseline bronchoscopy and 32 had RNA available from epithelial brushings at both bronchoscopies. Lung function was measured at intervals over the 8-week treatment period. Epithelial RNA from a subset of the subjects studied by microarray here have been used in other PCR based gene expression studies performed by our group.^4 Additional information is provided in the supplementary appendix.
(§1) Brushings yielded 1,300,000±800,000 cells of which 97±3% were epithelial. For microarray analysis, […] total epithelial RNA was amplified using NuGen Ovation RNA amplification system. Then 2.75 μg sscDNA was hybridized to Affymetrix U133 plus 2.0 arrays (>54,000 probe sets coding for 38,500 genes). Array images were analyzed using Affymetrix GeneChip Expression Analysis Software. Bioconductor^5 was used for quality control (affyPLM algorithm), preprocessing (RMA algorithm), cluster analysis, and linear modeling.^5-7 Raw array data are available from the Gene Expression Omnibus public database (http://www.ncbi.nlm.nih.gov/geo/, accession number pending). Selected microarray findings were confirmed by real-time PCR, enzyme linked immunosorbent assay (ELISA) or immunohistochemistry. In vitro studies of the effects of interleukin-13 (IL-13) on expression of selected genes were performed using primary airway epithelial cells grown at an air-liquid interface (additional detail in supplementary appendix).
For between group comparisons, t-test, rank-sum test or ANOVA followed by pair-wise analyses with Sidak correction were used as appropriate. Correlation of mRNA copy number by PCR (log transformed for normality) and lung function was performed using Pearson correlation. STATA version 9 software was used (StataCorp, College Station Tex.), and p<0.05 was taken as statistically significant. In microarray analyses, differential gene expression was assessed using linear models (controlling for age and gender). For between group comparisons, a Bonferroni corrected p-value<0.05 was used to identify differentially expressed genes. For the placebo-controlled trial, changes in gene expression from baseline to post-intervention were calculated and the mean changes in the fluticasone and placebo groups were compared. A two-fold change (either higher or lower in the fluticasone group as compared to placebo), was used to identify differentially expressed genes. Microarray analyses were performed using Bioconductor open source software^5 in the R statistical environment.
Protocol: This was a 6 visit, 10 week, randomized, double-blind, placebo-controlled trial specifically designed to determine the effects of inhaled fluticasone on airway gene expression and to relate those gene expression changes to improvements in lung function. After a one-week run-in/characterization period, subjects were randomized to receive 2 puffs BID of fluticasone propionate (250 μg/puff) or matching placebo for 8 weeks, followed by a one week run-out. Subjects were randomized in blocks designed to yield a greater number of subjects randomized to fluticasone as compared to placebo in order to maximize our ability to relate gene expression to lung function improvements within the intervention group. […]

[1] = tested on: airway epithelial brushings; experiment: Taqman / real-time PCR gene expression in airway epithelial brushings, fluticasone trial; type: in vivo, human
Procedure: as §1
In further analysis of the same dataset we have identified six genes (Table 4) which are differentially expressed in airway epithelial brushings from asthmatics asthma or altered by corticosteroid treatment of asthmatic subjects and which have not previously been implicated in asthma or in the mechanism of steroid benefit in asthma.

[2] = fluticasone arm as compared to the placebo arm
[3] = fluticasone group as compared to placebo group, baseline to 1 week
[4] = fluticasone group, baseline to 1 week, asthmatics
[5] = one week of treatment, n = 16, greater than one indicates suppression

CCC(=O)O[C@]1(C(=O)SCF)[C@H](C)C[C@H]2[C@@H]3C[C@H](F)C4=CC(=O)C=C[C@]4(C)[C@@]3(F)[C@@H](O)C[C@@]21C [fluticasone, fluticasone propionate] was tested, and the “CST1 gene expression in airway epithelial brushing from asthmatics treated with inhaled fluticasone” value (epithelial brushings; additional gene profiling experiments) was “upregulated”, the “CST1 reduction by array” value (epithelial brushings; [2]) was 2 fold and the “PRR4 gene expression change with fluticasone” value (epithelial brushings; fluticasone arm as compared to the placebo arm, asthmatic airway epithelial cells) was “only modestly reduced; also recorded: no significant change”. The “Fold-difference Combined, 227061_at (CDNA FLJ44429 fis)” value (epithelial brushings; [3]) was 2.0 fold, the “Fold-difference Combined, 228854_at (Transcribed locus)” value (epithelial brushings; [3]) was 10.5 fold and the “Fold-difference Combined, 228858_at (Transcribed locus)” value (epithelial brushings; [3]) was 2.8 fold. The “Fold-difference Combined, 230782_at (CDNA FLJ33419 fis)” value (epithelial brushings; [3]) was 2.2 fold, the “Fold-difference Combined, 231262_at (Transcribed locus)” value (epithelial brushings; [3]) was 2.8 fold and the “Fold-difference Combined, 244677_at” value (epithelial brushings; [3]) was 2.3 fold. The “Fold-difference Combined, C6” value (epithelial brushings; [3]) was 2.2 fold, the “Fold-difference Combined, C14orf78” value (epithelial brushings; [3]) was 2.1 fold and the “Fold-difference Combined, CLCA1” value (epithelial brushings; [3]) was −2.4 fold. The “Fold-difference Combined, CST1” value (epithelial brushings; [3]) was −2.1 fold, the “Fold-difference Combined, FKBP51” value (epithelial brushings; [3]) was 4.4 fold and the “Fold-difference Combined, FXYD1” value (epithelial brushings; [3]) was 2.1 fold. The “Fold-difference Combined, GAS1” value (epithelial brushings; [3]) was 3.3 fold, the “Fold-difference Combined, GPR109B” value (epithelial brushings; [3]) was 2.4 fold and the “Fold-difference Combined, HBA2” value (epithelial brushings; [3]) was 2.7 fold. The “Fold-difference Combined, HBB” value (epithelial brushings; [3]) was 2.1 fold, the “Fold-difference Combined, HIF3A” value (epithelial brushings; [3]) was 2.7 fold and the “Fold-difference Combined, KLF9” value (epithelial brushings; [3]) was 2.4 fold. The “Fold-difference Combined, LOC157381” value (epithelial brushings; [3]) was 2.1 fold, the “Fold-difference Combined, MUC13” value (epithelial brushings; [3]) was −2.0 fold and the “Fold-difference Combined, PHACTR3” value (epithelial brushings; [3]) was 3.2 fold. The “Fold-difference Combined, POSTN” value (epithelial brushings; [3]) was −2.1 fold, the “Fold-difference Combined, PPP1R16B” value (epithelial brushings; [3]) was 2.4 fold and the “Fold-difference Combined, SERPINB2” value (epithelial brushings; [3]) was −2.9 fold. For the same compound, the “Fold-difference Combined, TFCP2L1” value (epithelial brushings; [3]) was 3.0 fold, the “Fold-difference Combined, TSC22D3” value (epithelial brushings; [3]) was 2.5 fold and the “Fold-difference Combined, TU3A” value (epithelial brushings; [3]) was 2.8 fold. The “Fold-difference Combined, UBD” value (epithelial brushings; [3]) was −2.1 fold, the “Fold-difference Combined, UBE2H” value (epithelial brushings; [3]) was 2.1 fold and the “Fold-difference Combined, WIPI49” value (epithelial brushings; [3]) was 2.0 fold. For the same compound, the “Fold-difference Flovent, 227061_at (CDNA FLJ44429 fis)” value (epithelial brushings; [4]) was 1.6 fold, the “Fold-difference Flovent, 228854_at (Transcribed locus)” value (epithelial brushings; [4]) was 7.3 fold and the “Fold-difference Flovent, 228858_at (Transcribed locus)” value (epithelial brushings; [4]) was 2.4 fold. For the same compound, the “Fold-difference Flovent, 230782_at (CDNA FLJ33419 fis)” value (epithelial brushings; [4]) was 2.1 fold, the “Fold-difference Flovent, 231262_at (Transcribed locus)” value (epithelial brushings; [4]) was 2.4 fold and the “Fold-difference Flovent, 244677_at” value (epithelial brushings; [4]) was 1.8 fold. For the same compound, the “Fold-difference Flovent, C6” value (epithelial brushings; [4]) was 1.6 fold, the “Fold-difference Flovent, C14orf78” value (epithelial brushings; [4]) was 1.8 fold and the “Fold-difference Flovent, CLCA1” value (epithelial brushings; [4]) was −2.7 fold. For the same compound, the “Fold-difference Flovent, CST1” value (epithelial brushings; [4]) was −2.4 fold, the “Fold-difference Flovent, FKBP51” value (epithelial brushings; [4]) was 3.6 fold and the “Fold-difference Flovent, FXYD1” value (epithelial brushings; [4]) was 1.4 fold. The “Fold-difference Flovent, GAS1” value (epithelial brushings; [4]) was 2.7 fold, the “Fold-difference Flovent, GPR109B” value (epithelial brushings; [4]) was 1.9 fold and the “Fold-difference Flovent, HBA2” value (epithelial brushings; [4]) was 3.0 fold. For the same compound, the “Fold-difference Flovent, HBB” value (epithelial brushings; [4]) was 2.5 fold, the “Fold-difference Flovent, HIF3A” value (epithelial brushings; [4]) was 2.7 fold and the “Fold-difference Flovent, KLF9” value (epithelial brushings; [4]) was 2.2 fold. For the same compound, the “Fold-difference Flovent, LOC157381” value (epithelial brushings; [4]) was 1.7 fold, the “Fold-difference Flovent, MUC13” value (epithelial brushings; [4]) was −1.6 fold and the “Fold-difference Flovent, PHACTR3” value (epithelial brushings; [4]) was 3.1 fold. The “Fold-difference Flovent, POSTN” value (epithelial brushings; [4]) was −2.1 fold, the “Fold-difference Flovent, PPP1R16B” value (epithelial brushings; [4]) was 2.1 fold and the “Fold-difference Flovent, SERPINB2” value (epithelial brushings; [4]) was −2.5 fold. The “Fold-difference Flovent, TFCP2L1” value (epithelial brushings; [4]) was 3.1 fold, the “Fold-difference Flovent, TSC22D3” value (epithelial brushings; [4]) was 2.0 fold and the “Fold-difference Flovent, TU3A” value (epithelial brushings; [4]) was 2.3 fold. The “Fold-difference Flovent, UBD” value (epithelial brushings; [4]) was −2.0 fold, the “Fold-difference Flovent, UBE2H” value (epithelial brushings; [4]) was 2.0 fold and the “Fold-difference Flovent, WIPI49” value (epithelial brushings; [4]) was 1.7 fold. For the same compound, the “CST1 reduction by taqman” value [1, 2] was 6 fold, the “FLUTICASONE Change AVERAGE, CEACAM5 (ratio of gene expression before and after treatment)” value [1, 5] was 1.88 and the “FLUTICASONE Change AVERAGE, CST1 (ratio of gene expression before and after treatment)” value [1, 5] was 5.97. The “FLUTICASONE Change AVERAGE, CST4 (ratio of gene expression before and after treatment)” value [1, 5] was 5.41, the “FLUTICASONE Change AVERAGE, HDAC9 (ratio of gene expression before and after treatment)” value [1, 5] was 2.10 and the “FLUTICASONE Change AVERAGE, SERPINB1 (ratio of gene expression before and after treatment)” value [1, 5] was 2.31.
